What was measured:
[1] = tested on: Blumeria graminis f. sp. hordei; assay: Test Example D: Powdery mildew on barley; conditions: Powdery mildew on barley; for Test D control value class: class of control value; for Test D control value: control value class
Description: Seeds of a test plant (barley variety: Akashinriki) were planted and cultivated until the first leaves appeared. In the test, the inventive compounds were dissolved into dimethyl sulfoxide-methanol mixture solution (volume ratio: 9/1), and the resultant solutions were diluted with well water to a concentration of 250 ppm to obtain the drug solutions. The drug solutions were sprayed to the test plant (2.5 ml/pot). After the drug solutions dried, conidia of Blumeria graminis f. sp. hordei were inoculated to the plant by shaking off. The degrees of disease development were investigated 6 to 10 days after the inoculation, and the effectiveness of the drug solutions was evaluated.
In Test Examples described above, the degrees of disease development were evaluated in increments of 0.05 from 0 (as no incidence of disease) to 3 (as the degree of disease development in an untreated plant group). Further, control values were calculated using the following equation based on the degree of disease development.
n=Degree of disease development in each treated group

[2] = tested on: Plasmopara viticola; assay: Test Example G: Downy mildew on vine; conditions: 250 ppm spray; for Test G control value class: Downy mildew on vine (Neomuscat), 2.5 ml/pot, assessed 7 to 10 days after inoculation; for Test G control value: Downy mildew on vine, 7 to 10 days after inoculation
[3] = tested on: Colletotrichum orbiculare; assay: Test Example H: Anthracnose on cucumber; conditions: 250 ppm spray; for Test H control value class: Anthracnose on cucumber (Sagami Hanjiro), 2.5 ml/pot, assessed 6 to 10 days after inoculation; for Test H control value: Anthracnose on cucumber, 6 to 10 days after inoculation
[4] = tested on: Puccinia recondita; assay: Test Example E: Brown rust on wheat; format: in vivo; conditions: Brown rust on wheat; for Test E control value class: class of control value; for Test E control value: control value class
[5] = tested on: Alternaia brassicicola; assay: Test Example C: Alternaria sooty spot on cabbage; format: in vivo; conditions: Alternaria sooty spot on cabbage; for Test C control value class: class of control value; for Test C control value: control value class
From the text: Seeds of a test plant (cabbage variety: Shikidori) were planted and cultivated until the cotyledons extended.
<Control Value> Control value=100{1−(n/3)}

[6] = tested on: Magnaporthe grisea; assay: whole plant or invertebrate; format: in vivo; conditions: Blast on rice; for Test A control value class: class of control value; for Test A control value: control value class
[7] = tested on: Phytophthora infestans; assay: whole plant or invertebrate; format: in vivo; conditions: Late blight on tomato; for Test F control value class: class of control value; for Test F control value: control value class
[8] = tested on: Botrytis cinerea; assay: Test Example B: Gray mold on tomato; conditions: Gray mold on tomato; for Test B control value class: class of control value; for Test B control value: control value class

SMILES	Test D control value class [1]	Test G control value class [2]	Test H control value class [3]	Test E control value class [4]	Test C control value class [5]	Test A control value class [6]	Test F control value class [7]	Test B control value class [8]	Test D control value [1]	Test G control value [2]	Test H control value [3]	Test E control value [4]	Test C control value [5]	Test A control value [6]	Test F control value [7]	Test B control value [8]
CCn1c(-c2ccc(Cl)cc2F)c(CC(C)C)cc(Br)c1=O [compound 159]	H (more than 50% control value)	H (more than 50% control value)	H (more than 50% control value)	H (more than 50% control value)	H (more than 50% control value)	H (more than 50% control value)	L (50% or less control value)	H (more than 50% control value)	–	–	–	–	–	–	–	–
CCn1c(-c2c(F)cc(F)cc2F)c(C(=O)CC(C)C)cc(Cl)c1=O [compound 160]	H (more than 50% control value)	H (more than 50% control value)	H (more than 50% control value)	H (more than 50% control value)	H (more than 50% control value)	L (50% or less control value)	L (50% or less control value)	H (more than 50% control value)	–	–	–	–	–	–	–	–
CCOC(C)(C)c1cc(Cl)c(=O)n(CC)c1-c1c(F)cc(F)cc1F [compound 161]	H (more than 50% control value)	H (more than 50% control value)	H (more than 50% control value)	H (more than 50% control value)	H (more than 50% control value)	H (more than 50% control value)	L (50% or less control value)	H (more than 50% control value)	–	–	–	–	–	–	–	–
CCOC(C)(C)c1cc(Cl)c(=O)n(CC)c1-c1c(F)cc(OC)cc1F [compound 162]	H (more than 50% control value)	H (more than 50% control value)	H (more than 50% control value)	H (more than 50% control value)	H (more than 50% control value)	H (more than 50% control value)	L (50% or less control value)	H (more than 50% control value)	–	–	–	–	–	–	–	–
CCn1c(-c2c(F)cc(F)cc2F)c(CC(C)(C)C)cc(Cl)c1=O [compound 169]	H (more than 50% control value)	H (more than 50% control value)	H (more than 50% control value)	H (more than 50% control value)	H (more than 50% control value)	H (more than 50% control value)	H (more than 50% control value)	H (more than 50% control value)	–	–	–	–	–	–	–	–
CCn1c(-c2c(F)cc(F)cc2F)c(C(=O)C(C)(C)C)cc(Cl)c1=O [compound 173]	H (more than 50% control value)	L (50% or less control value)	H (more than 50% control value)	H (more than 50% control value)	H (more than 50% control value)	L (50% or less control value)	L (50% or less control value)	H (more than 50% control value)	–	–	–	–	–	–	–	–
CCn1c(-c2ccc(Br)cc2)c(CC(C)C)ccc1=O [compound 175]	H (more than 50% control value)	L (50% or less control value)	L (50% or less control value)	H (more than 50% control value)	L (50% or less control value)	L (50% or less control value)	L (50% or less control value)	H (more than 50% control value)	–	–	–	–	–	–	–	–
CCn1c(-c2ccc(F)cc2Cl)c(C2CCCCC2)ccc1=O [compound 176]	H (more than 50% control value)	L (50% or less control value)	L (50% or less control value)	H (more than 50% control value)	H (more than 50% control value)	H (more than 50% control value)	H (more than 50% control value)	H (more than 50% control value)	–	–	–	–	–	–	–	–
CCn1c(-c2ccc(Br)cc2)c(CC(C)C)cc(Cl)c1=O [compound 177]	L (50% or less control value)	L (50% or less control value)	L (50% or less control value)	H (more than 50% control value)	H (more than 50% control value)	L (50% or less control value)	L (50% or less control value)	H (more than 50% control value)	–	–	–	–	–	–	–	–
CCn1c(-c2ccc(Br)cc2)c(CC(C)C)cc(Br)c1=O [compound 178]	L (50% or less control value)	L (50% or less control value)	L (50% or less control value)	H (more than 50% control value)	H (more than 50% control value)	L (50% or less control value)	L (50% or less control value)	H (more than 50% control value)	–	–	–	–	–	–	–	–
CCn1c(-c2c(F)cc(OC)cc2F)c(C(=O)C(C)(C)C)cc(Cl)c1=O [compound 179]	H (more than 50% control value)	L (50% or less control value)	H (more than 50% control value)	H (more than 50% control value)	H (more than 50% control value)	H (more than 50% control value)	L (50% or less control value)	H (more than 50% control value)	–	–	–	–	–	–	–	–
CCn1c(-c2ccc(F)cc2Cl)c(C2CCCCC2)cc(Cl)c1=O [compound 181]	H (more than 50% control value)	H (more than 50% control value)	H (more than 50% control value)	H (more than 50% control value)	H (more than 50% control value)	H (more than 50% control value)	L (50% or less control value)	H (more than 50% control value)	–	–	–	–	–	–	–	–
CCn1c(-c2ccc(F)cc2Cl)c(C2CCCCC2)cc(Br)c1=O [compound 182]	H (more than 50% control value)	L (50% or less control value)	L (50% or less control value)	H (more than 50% control value)	H (more than 50% control value)	H (more than 50% control value)	L (50% or less control value)	H (more than 50% control value)	–	–	–	–	–	–	–	–
CCc1ccc(=O)n(CC)c1-c1ccc(F)cc1Cl [compound 185]	–	–	–	–	–	–	–	–	H (more than 50% control value)	L (50% or less control value)	L (50% or less control value)	H (more than 50% control value)	H (more than 50% control value)	L (50% or less control value)	L (50% or less control value)	H (more than 50% control value)
CCc1cc(Br)c(=O)n(CC)c1-c1ccc(F)cc1Cl [compound 186]	–	–	–	–	–	–	–	–	H (more than 50% control value)	H (more than 50% control value)	H (more than 50% control value)	H (more than 50% control value)	H (more than 50% control value)	H (more than 50% control value)	L (50% or less control value)	H (more than 50% control value)
CCc1cc(Cl)c(=O)n(CC)c1-c1ccc(F)cc1Cl [compound 189]	–	–	–	–	–	–	–	–	H (more than 50% control value)	H (more than 50% control value)	H (more than 50% control value)	H (more than 50% control value)	H (more than 50% control value)	H (more than 50% control value)	L (50% or less control value)	H (more than 50% control value)

Source: US11147272B2, “Pyridone compounds and agricultural and horticultural fungicides comprising the same as active ingredients” (MITSUI CHEMICALS AGRO, INC., priority 2017, dated 2021)
